Data reported in ChEMBL document CHEMBL5375952, “Discovery of Novel 8-Hydroxyquinoline Derivatives with Potent In Vitro and In Vivo Antifungal Activity” (J Med Chem, 2023).
≈ marks a conversion by molar mass, not a printed value.

Assays:
Candida albicans [1] = assay: Antifungal activity against Candida albicans SC5314 assessed as fungal growth inhibition incubated for 48 hrs by broth microdilution method; type: functional
Candida albicans [2] = assay: Antifungal activity against Candida albicans 21 assessed as fungal growth inhibition incubated for 48 hrs by broth microdilution method; type: functional
Nakaseomyces glabratus [3] = assay: Antifungal activity against Candida glabrata 201 assessed as fungal growth inhibition incubated for 48 hrs by broth microdilution method; type: functional
Nakaseomyces glabratus [4] = assay: Antifungal activity against Candida glabrata 202 assessed as fungal growth inhibition incubated for 48 hrs by broth microdilution method; type: functional
Nakaseomyces glabratus [5] = assay: Antifungal activity against Candida glabrata 205 assessed as fungal growth inhibition incubated for 48 hrs by broth microdilution method; type: functional
Pichia kudriavzevii [6] = assay: Antifungal activity against Candida krusei 68 assessed as fungal growth inhibition incubated for 48 hrs by broth microdilution method; type: functional
Pichia kudriavzevii [7] = assay: Antifungal activity against Candida krusei 69 assessed as fungal growth inhibition incubated for 48 hrs by broth microdilution method; type: functional
Pichia kudriavzevii [8] = assay: Antifungal activity against Candida krusei 477 assessed as fungal growth inhibition incubated for 48 hrs by broth microdilution method; type: functional
Candida parapsilosis [9] = assay: Antifungal activity against Candida parapsilosis 105 assessed as fungal growth inhibition incubated for 48 hrs by broth microdilution method; type: functional; details: Lodderomyces parapsilosis
Candida parapsilosis [10] = assay: Antifungal activity against Candida parapsilosis 125 assessed as fungal growth inhibition incubated for 48 hrs by broth microdilution method; type: functional; details: Lodderomyces parapsilosis
Candida tropicalis [11] = assay: Antifungal activity against Candida tropicalis 176 assessed as fungal growth inhibition incubated for 48 hrs by broth microdilution method; type: functional
Candida tropicalis [12] = assay: Antifungal activity against Candida tropicalis 178 assessed as fungal growth inhibition incubated for 48 hrs by broth microdilution method; type: functional
Candida tropicalis [13] = assay: Antifungal activity against Candida tropicalis 184 assessed as fungal growth inhibition incubated for 48 hrs by broth microdilution method; type: functional
Cryptococcus neoformans [14] = assay: Antifungal activity against Cryptococcus neoformans 443 assessed as fungal growth inhibition incubated for 48 hrs by broth microdilution method; type: functional
Cryptococcus neoformans [15] = assay: Antifungal activity against Cryptococcus neoformans 444 assessed as fungal growth inhibition incubated for 48 hrs by broth microdilution method; type: functional
Cryptococcus neoformans [16] = assay: Antifungal activity against Cryptococcus neoformans 445 assessed as fungal growth inhibition incubated for 48 hrs by broth microdilution method; type: functional
Aspergillus fumigatus [17] = assay: Antifungal activity against Aspergillus fumigatus 023-12 assessed as fungal growth inhibition incubated for 48 hrs by broth microdilution method; type: functional
Aspergillus fumigatus [18] = assay: Antifungal activity against Aspergillus fumigatus A assessed as fungal growth inhibition incubated for 48 hrs by broth microdilution method; type: functional
Aspergillus fumigatus [19] = assay: Antifungal activity against Aspergillus fumigatus 7544 assessed as fungal growth inhibition incubated for 48 hrs by broth microdilution method; type: functional
[20] = Cytotoxicity against human Caco-2 cells assessed as cell growth inhibition incubated for 24 hrs by CCK8 assay; type: toxicity, cell-based
Candida albicans [21] = assay: Antifungal activity against Candida albicans 25 assessed as fungal growth inhibition incubated for 48 hrs by broth microdilution method; type: functional
Candida albicans [22] = assay: Antifungal activity against Candida albicans 337 assessed as fungal growth inhibition incubated for 48 hrs by broth microdilution method; type: functional
Candida albicans [23] = assay: Antifungal activity against Candida albicans 338 assessed as fungal growth inhibition incubated for 48 hrs by broth microdilution method; type: functional
[Candida] auris [24] = Antifungal activity against Candida auris 276 assessed as fungal growth inhibition incubated for 48 hrs by broth microdilution method; type: functional; details: Candidozyma auris
[Candida] auris [25] = Antifungal activity against Candida auris 277 assessed as fungal growth inhibition incubated for 48 hrs by broth microdilution method; type: functional; details: Candidozyma auris
[Candida] auris [26] = Antifungal activity against Candida auris 278 assessed as fungal growth inhibition incubated for 48 hrs by broth microdilution method; type: functional; details: Candidozyma auris
[Candida] auris [27] = Antifungal activity against Candida auris CBS 12372 assessed as fungal growth inhibition incubated for 48 hrs by broth microdilution method; type: functional; details: Candidozyma auris
[Candida] auris [28] = Antifungal activity against Candida auris 888 assessed as fungal growth inhibition incubated for 48 hrs by broth microdilution method; type: functional; details: Candidozyma auris
Nakaseomyces glabratus [29] = assay: Antifungal activity against Candida glabrata 203 assessed as fungal growth inhibition incubated for 48 hrs by broth microdilution method; type: functional
Nakaseomyces glabratus [30] = assay: Antifungal activity against Candida glabrata 204 assessed as fungal growth inhibition incubated for 48 hrs by broth microdilution method; type: functional
Nakaseomyces glabratus [31] = assay: Antifungal activity against Candida glabrata 222 assessed as fungal growth inhibition incubated for 48 hrs by broth microdilution method; type: functional
Pichia kudriavzevii [32] = assay: Antifungal activity against Candida krusei 471 assessed as fungal growth inhibition incubated for 48 hrs by broth microdilution method; type: functional
Pichia kudriavzevii [33] = assay: Antifungal activity against Candida krusei 472 assessed as fungal growth inhibition incubated for 48 hrs by broth microdilution method; type: functional
Candida parapsilosis [34] = assay: Antifungal activity against Candida parapsilosis 104 assessed as fungal growth inhibition incubated for 48 hrs by broth microdilution method; type: functional; details: Lodderomyces parapsilosis
Candida parapsilosis [35] = assay: Antifungal activity against Candida parapsilosis 106 assessed as fungal growth inhibition incubated for 48 hrs by broth microdilution method; type: functional; details: Lodderomyces parapsilosis
Candida tropicalis [36] = assay: Antifungal activity against Candida tropicalis 172 assessed as fungal growth inhibition incubated for 48 hrs by broth microdilution method; type: functional
Candida tropicalis [37] = assay: Antifungal activity against Candida tropicalis 177 assessed as fungal growth inhibition incubated for 48 hrs by broth microdilution method; type: functional
Candida tropicalis [38] = assay: Antifungal activity against Candida tropicalis 182 assessed as fungal growth inhibition incubated for 48 hrs by broth microdilution method; type: functional
Cryptococcus neoformans [39] = assay: Antifungal activity against Cryptococcus neoformans H99 assessed as fungal growth inhibition incubated for 48 hrs by broth microdilution method; type: functional
Cryptococcus neoformans [40] = assay: Antifungal activity against Cryptococcus neoformans SH68 assessed as fungal growth inhibition incubated for 48 hrs by broth microdilution method; type: functional
Cryptococcus neoformans [41] = assay: Antifungal activity against Cryptococcus neoformans 56992 assessed as fungal growth inhibition incubated for 48 hrs by broth microdilution method; type: functional
Cryptococcus neoformans [42] = assay: Antifungal activity against Cryptococcus neoformans HN1 assessed as fungal growth inhibition incubated for 48 hrs by broth microdilution method; type: functional
Cryptococcus neoformans [43] = assay: Antifungal activity against Cryptococcus neoformans HN2 assessed as fungal growth inhibition incubated for 48 hrs by broth microdilution method; type: functional
Cryptococcus neoformans [44] = assay: Antifungal activity against Cryptococcus neoformans HN2-40 assessed as fungal growth inhibition incubated for 48 hrs by broth microdilution method; type: functional
Cryptococcus neoformans [45] = assay: Antifungal activity against Cryptococcus neoformans HN15 assessed as fungal growth inhibition incubated for 48 hrs by broth microdilution method; type: functional
Cryptococcus neoformans [46] = assay: Antifungal activity against Cryptococcus neoformans HN17 assessed as fungal growth inhibition incubated for 48 hrs by broth microdilution method; type: functional
Cryptococcus neoformans [47] = assay: Antifungal activity against Cryptococcus neoformans HN19 assessed as fungal growth inhibition incubated for 48 hrs by broth microdilution method; type: functional
Cryptococcus neoformans [48] = assay: Antifungal activity against Cryptococcus neoformans HN20 assessed as fungal growth inhibition incubated for 48 hrs by broth microdilution method; type: functional
Cryptococcus neoformans [49] = assay: Antifungal activity against Cryptococcus neoformans BJ3 assessed as fungal growth inhibition incubated for 48 hrs by broth microdilution method; type: functional
[50] = Antifungal activity against Cryptococcus gattii WM178 assessed as fungal growth inhibition incubated for 48 hrs by broth microdilution method; type: functional, Cryptococcus gattii VGI
[51] = Antifungal activity against Cryptococcus gattii WM179 assessed as fungal growth inhibition incubated for 48 hrs by broth microdilution method; type: functional, Cryptococcus gattii VGI
[52] = Antifungal activity against Cryptococcus gattii E566 assessed as fungal growth inhibition incubated for 48 hrs by broth microdilution method; type: functional, Cryptococcus gattii VGI
[53] = Antifungal activity against Cryptococcus gattii SCZ20031 assessed as fungal growth inhibition incubated for 48 hrs by broth microdilution method; type: functional, Cryptococcus gattii VGI

## CCN(CC)c1ccc(C(NC(=O)C(C)C)c2ccc3cccnc3c2O)cc1 (stereo not drawn)
Candida albicans [1]
  MIC: 0.063 µg/mL (≈ 0.161 µM)
Candida albicans [2]
  MIC: ≤ 0.125 µg/mL
Nakaseomyces glabratus [3]
  MIC: 0.032 µg/mL (≈ 0.0817 µM)
Nakaseomyces glabratus [4]
  MIC: 0.032 µg/mL (≈ 0.0817 µM)
Nakaseomyces glabratus [5]
  MIC: 0.125 µg/mL (≈ 0.319 µM)
Pichia kudriavzevii [6]
  MIC: 0.032 µg/mL (≈ 0.0817 µM)
Pichia kudriavzevii [7]
  MIC: 0.125 µg/mL (≈ 0.319 µM)
Pichia kudriavzevii [8]
  MIC: 0.125 µg/mL (≈ 0.319 µM)
Candida parapsilosis [9]
  MIC: 0.125 µg/mL (≈ 0.319 µM)
Candida parapsilosis [10]
  MIC: 0.125 µg/mL (≈ 0.319 µM)
Candida tropicalis [11]
  MIC: 0.016 µg/mL (≈ 0.0409 µM)
Candida tropicalis [12]
  MIC: 0.032 µg/mL (≈ 0.0817 µM)
Candida tropicalis [13]
  MIC: 0.125 µg/mL (≈ 0.319 µM)
Cryptococcus neoformans [14]
  MIC: 0.016 µg/mL (≈ 0.0409 µM)
Cryptococcus neoformans [15]
  MIC: 0.016 µg/mL (≈ 0.0409 µM)
Cryptococcus neoformans [16]
  MIC: 0.016 µg/mL (≈ 0.0409 µM)
Aspergillus fumigatus [17]
  MIC: 0.5 µg/mL (≈ 1.28 µM)
Aspergillus fumigatus [18]
  MIC: 0.5 µg/mL (≈ 1.28 µM)
Aspergillus fumigatus [19]
  MIC: 1 µg/mL (≈ 2.55 µM)
[20]
  IC50 at 24 h: 72.6 µg/mL (≈ 185 µM)
Candida albicans [21]
  MIC: 0.063 µg/mL (≈ 0.161 µM)
Candida albicans [22]
  MIC: 0.032 µg/mL (≈ 0.0817 µM)
Candida albicans [23]
  MIC: 0.063 µg/mL (≈ 0.161 µM)
[Candida] auris [24]
  MIC: 0.063 µg/mL (≈ 0.161 µM)
[Candida] auris [25]
  MIC: 0.063 µg/mL (≈ 0.161 µM)
[Candida] auris [26]
  MIC: 0.125 µg/mL (≈ 0.319 µM)
[Candida] auris [27]
  MIC: 0.063 µg/mL (≈ 0.161 µM)
[Candida] auris [28]
  MIC: 0.25 µg/mL (≈ 0.639 µM)
Nakaseomyces glabratus [29]
  MIC: 0.016 µg/mL (≈ 0.0409 µM)
Nakaseomyces glabratus [30]
  MIC: 0.016 µg/mL (≈ 0.0409 µM)
Nakaseomyces glabratus [31]
  MIC: 0.125 µg/mL (≈ 0.319 µM)
Pichia kudriavzevii [32]
  MIC: 0.032 µg/mL (≈ 0.0817 µM)
Pichia kudriavzevii [33]
  MIC: 0.125 µg/mL (≈ 0.319 µM)
Candida parapsilosis [34]
  MIC: 0.016 µg/mL (≈ 0.0409 µM)
Candida parapsilosis [35]
  MIC: 0.063 µg/mL (≈ 0.161 µM)
Candida tropicalis [36]
  MIC: 0.063 µg/mL (≈ 0.161 µM)
Candida tropicalis [37]
  MIC: 0.125 µg/mL (≈ 0.319 µM)
Candida tropicalis [38]
  MIC: 0.125 µg/mL (≈ 0.319 µM)
Cryptococcus neoformans [39]
  MIC: 0.125 µg/mL (≈ 0.319 µM)
Cryptococcus neoformans [40]
  MIC: < 0.016 µg/mL
Cryptococcus neoformans [41]
  MIC: 0.032 µg/mL (≈ 0.0817 µM)
Cryptococcus neoformans [42]
  MIC: 0.063 µg/mL (≈ 0.161 µM)
Cryptococcus neoformans [43]
  MIC: 0.063 µg/mL (≈ 0.161 µM)
Cryptococcus neoformans [44]
  MIC: < 0.016 µg/mL
Cryptococcus neoformans [45]
  MIC: 0.063 µg/mL (≈ 0.161 µM)
Cryptococcus neoformans [46]
  MIC: 0.063 µg/mL (≈ 0.161 µM)
Cryptococcus neoformans [47]
  MIC: 0.063 µg/mL (≈ 0.161 µM)
Cryptococcus neoformans [48]
  MIC: 0.016 µg/mL (≈ 0.0409 µM)
Cryptococcus neoformans [49]
  MIC: 0.063 µg/mL (≈ 0.161 µM)
[50]
  MIC: 0.031 µg/mL (≈ 0.0792 µM)
[51]
  MIC: 0.031 µg/mL (≈ 0.0792 µM)
[52]
  MIC: 0.031 µg/mL (≈ 0.0792 µM)
[53]
  MIC: 0.031 µg/mL (≈ 0.0792 µM)
